In US7186709B2, “Dihydropyrancarboxamides and uses thereof” (President and Fellows of Harvard College, priority 2002, dated 2007):

Columns and labels:
[1] = tested on: human A549 lung carcinoma cells; experiment: genistein suppressor screen (BrdU cytoblot with 100 μM genistein challenge); assay type: cell-based; conditions: A549 cells challenged with 100 μM genistein
Description: Both plates of stock solutions (10) were used in phenotypic assays. In particular, we exposed living human A549 lung carcinoma cells to 708 (324+384) stock solutions under two different assay conditions. These experiments were performed with a hand-held pin-transfer tool, though our complete technology platform includes a pin-transfer robot capable of mapping into multiple microtiter plates. In certain embodiments, cultured cells exposed to 5-bromodeoxyuridine (BrdU) will incorporate this base analog into their DNA when actively dividing, and this incorporation can be detected by cytoblot assay using antibodies directed against BrdU (B. R. Stockwell, S. J. Haggarty, S. L. Schreiber, High-throughput screening of small molecules in miniaturized mammalian cell-based assays involving post-translational modifications, Chem. Biol. 6 (1999) 71–83). […] Thus, ‘hits’ in the former assay are detected as a loss of signal in a high-signal array (FIG. 14(a)), while ‘hits’ in the latter assay are detected as a gain of signal in a lowsignal array (FIG. 14(b)). […]
For each of these assays, aliquots from each of the two plates (10) were exposed to cells in duplicate to ensure the fidelity of the results. Compounds were scored as ‘hits’ only if they scored strongly in both replicates of a given experiment. […]

human Eg5 = biological target: T1, human Eg5 (Homo sapiens, UniProt P52732); experiment: steady-state Eg5 ATPase assay (NADH-coupled); assay type: biochemical; conditions: library screen
T1 construct: 1 μM microtubules and 40 nM Eg5-367H; His6 (C); made in house; host or cells: pRSETa backbone
T1 sequence (P52732 1-367): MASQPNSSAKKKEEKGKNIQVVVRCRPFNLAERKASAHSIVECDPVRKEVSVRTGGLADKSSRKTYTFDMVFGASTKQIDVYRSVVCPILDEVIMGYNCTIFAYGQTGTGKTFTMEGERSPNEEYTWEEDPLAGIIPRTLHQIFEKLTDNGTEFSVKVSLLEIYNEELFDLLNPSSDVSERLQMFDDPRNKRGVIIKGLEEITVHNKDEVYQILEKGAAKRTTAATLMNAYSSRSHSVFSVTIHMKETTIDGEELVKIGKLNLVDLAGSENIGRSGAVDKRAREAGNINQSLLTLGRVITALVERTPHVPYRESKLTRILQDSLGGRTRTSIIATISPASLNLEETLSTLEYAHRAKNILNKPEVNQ
Source text: Coding regions for the expression of C-terminally His6-tagged constructs of human Eg5 were generated by polymerase chain reaction using a pBluescript template containing full length human Eg5 [23] and the following primers: a common N-terminal primer 5′-[…] and specific C-teminal primers; 5′-[…] (hEg5–367H), 5′-[…] (hEg5–405H), 5′-[…] (hEg5–437H). The PCR products were ligated into a pRSETa backbone. Eg5 protein constructs were expressed and purified as described previously [Woehike, G., Ruby, A. K., Hart, C. L., Ly, B., Hom-Booher, N. and Vale, R. D. (1997) Microtubule interaction site of the kinesin motor. Cell. 90, 207–216]. […] The concentration of Eg5 was measured using the Edelhoch [Pace, C. […]
We measured the ATPase activity of Eg5 in vitro using an assay that couples the hydrolysis of ATP to the oxidation of NADH [Woehike, G., Ruby, A. K., Hart, C. […] In the assay, the concentration of ATP remains constant however, the decrease in NADH fluorescence is a convenient measure of the amount of ATP turned over. […] Time-points for NADH fluorescence were measured in 384 well black plates (NalgeneNUNC) by a Wallac Victor^2 1420 multilabel counter, umbelliferone filter set (excitation: 355 nm, emission: 420 nm), and the steady-state rate of fluorescence decay was calculated using a linear fit by Microsoft Excel. […]

Eg5 inhibitory activity (human Eg5) | Structure (SMILES) | BrdU incorporation judged by cytoblot assay [1]
– | O=c1c(-c2ccc(O)cc2)coc2cc(O)cc(O)c12 [genistein, 4′,5,7 trihydroxyisoflavone] | impaired
found to inhibit Eg5 | CCO[C@H]1OC(C(=O)NCc2ccc(F)cc2)=C[C@@H](c2ccccc2)[C@H]1CCCO | –
